This series concerns microbiota present in the faecal samples. The series is described as follows: Faecal fermentation, distribution of oligosaccharides (HPAEC-PAD peak areas). The text has this:
HPAEC-PAD (high performance anion exchange chromatography) equipped with a PA-1 column was used for separation of mono- and oligosaccharides of the different samples. […] The samples as used for GPC were 100-fold diluted with DMSO before injection.
The distribution of oligosaccharides in the mixtures was also monitored over this time period using the method described above in relation to Table 2.

Where [1] appears, read: Comp. Ex. 1 sample, 6 h, Donor A.
Where [2] appears, read: Comp. Ex. 1 sample, 6 h, Donor B.
The mark [3] stands for this setting: Comp. Ex. 1 sample, 6 h, Donor C.
Where [4] appears, read: Comp. Ex. 1 sample, 24 h, Donor A.
The mark [5] stands for this setting: Comp. Ex. 1 sample, 24 h, Donor B.
[6] abbreviates: Comp. Ex. 1 sample, 24 h, Donor C.
Where [7] appears, read: Comp. Ex. 1 sample, 48 h, Donor A.
Setting [8] is: Comp. Ex. 1 sample, 48 h, Donor B.
Where [9] appears, read: Comp. Ex. 1 sample, 48 h, Donor C.
[10] abbreviates: Example 2 sample, 24 h, Donor A.
[11] abbreviates: Example 2 sample, 24 h, Donor B.
[12] abbreviates: Example 2 sample, 24 h, Donor C.
Setting [13] is: Example 2 sample, 48 h, Donor A.
Where [14] appears, read: Example 2 sample, 48 h, Donor B.
[15] abbreviates: Example 2 sample, 48 h, Donor C.

With `OC[C@H]1O[C@@H](OC[C@H]2OC(O)[C@H](O)[C@@H](O)[C@@H]2O)[C@H](O)[C@@H](O)[C@H]1O` (some centres unmarked) [Allolactos, Allolactose], the Peak areas is, setting by setting: (Comp. Ex. 1 sample, 0 h) 16.2; under setting [1], 0.0; under setting [2], 0.0; under setting [3], 0.0; under setting [4], 0.0; under setting [5], 0.0. Also, the Peak areas by setting is: under setting [6], 0.0; under setting [7], 0.0; under setting [8], 0.0; under setting [9], 0.0; (Example 2 sample, 0 h) 24; (Example 2 sample, 6 h, Donor A) 1.3. In addition, the Peak areas runs as follows: (Example 2 sample, 6 h, Donor B) 0.0; (Example 2 sample, 6 h, Donor C) 0.0; under setting [10], 0.0; under setting [11], 0.0; under setting [12], 0.0; under setting [13], 0.0. The Peak areas by setting is: under setting [14], 0.0; under setting [15], 0.0.

Regarding `OC[C@H]1O[C@@H](O[C@@H]2[C@H](O)[C@@H](O)[C@H](O[C@H]3[C@H](O)[C@@H](O)C(O)O[C@@H]3CO)O[C@@H]2CO)[C@H](O)[C@@H](O)[C@H]1O` (stereo partly drawn) [Cpd. ID 11, D-Gal-(β1-4)-D-Gal-(β1-4)-D-Glu], the Peak areas is 27.6 (Comp. Ex. 1 sample, 0 h); 1.9 under setting [1]; 5.7 under setting [2]; 1.6 under setting [3]; 1.9 under setting [4]; 2.0 under setting [5]. Besides, the Peak areas by setting is: under setting [6], 0.7; under setting [7], 0.0; under setting [8], 1.9; under setting [9], 0.2; (Example 2 sample, 0 h) 20.4; (Example 2 sample, 6 h, Donor A) 3.2. The Peak areas is, setting by setting: (Example 2 sample, 6 h, Donor B) 4.5; (Example 2 sample, 6 h, Donor C) 1.6; under setting [10], 1.2; under setting [11], 1.7; under setting [12], 0.5; under setting [13], 0.3. Also, the Peak areas is listed as 2.6 under setting [14] and 0.6 under setting [15].

`OC[C@H]1O[C@@H](O[C@H]2[C@@H](O)[C@@H](CO)O[C@@H](O[C@H]3[C@H](O)[C@@H](O)C(O)O[C@@H]3CO)[C@@H]2O)[C@H](O)[C@@H](O)[C@H]1O` (stereo partly drawn) [Cpd. ID 12, D-Gal-(β1-3)-D-Gal-(β1-4)-D-Glu]: the Peak areas (Comp. Ex. 1 sample, 0 h) is 1.4; the Peak areas under setting [1] stood at 1.4; the Peak areas under setting [2] stood at 0.8; the Peak areas under setting [3] amounted to 0.9; the Peak areas under setting [4] was 0.4; the Peak areas under setting [5] is recorded as 0.4. The Peak areas runs as follows: under setting [6], 0.4; under setting [7], 0.1; under setting [8], 1.1; under setting [9], 0.1; (Example 2 sample, 0 h) 28.9; (Example 2 sample, 6 h, Donor A) 1.1. The Peak areas reads like this: (Example 2 sample, 6 h, Donor B) 5.4; (Example 2 sample, 6 h, Donor C) 1.2; under setting [10], 0.4; under setting [11], 0.7; under setting [12], 0.3; under setting [13], 0.3. Further, the Peak areas is given as 0.7 under setting [14] and 0.2 under setting [15].

The molecule `OC[C@H]1O[C@@H](O[C@H]2[C@@H](O)[C@@H](CO)O[C@@H](O[C@H]3[C@H](O)[C@@H](CO)OC(O)[C@@H]3O)[C@@H]2O)[C@H](O)[C@@H](O)[C@H]1O` (stereo partly drawn) [Cpd. ID 29, D-Gal-(β1-3)-D-Gal-(β1-3)-D-Glu] displayed a Peak areas (Comp. Ex. 1 sample, 0 h) of 4.7; a Peak areas under setting [1] of 0.1; a Peak areas under setting [2] of 2.0; a Peak areas under setting [3] of 1.0; a Peak areas under setting [4] of 0.2; a Peak areas under setting [5] of 0.4. For the same molecule, the Peak areas is recorded as 0.0 under setting [6]; 0.0 under setting [7]; 0.3 under setting [8]; 0.0 under setting [9]; 12.8 (Example 2 sample, 0 h); 1.1 (Example 2 sample, 6 h, Donor A). Also, the Peak areas came to 2.0 (Example 2 sample, 6 h, Donor B); 0.4 (Example 2 sample, 6 h, Donor C); 0.0 under setting [10]; 0.0 under setting [11]; 0.0 under setting [12]; 0.1 under setting [13]. For the same molecule, the Peak areas reads like this: under setting [14], 0.4; under setting [15], 0.1.

Regarding `OC[C@H]1O[C@@H](O[C@H]2[C@@H](O)[C@@H](CO)O[C@@H](O[C@H]3C(O)O[C@H](CO)[C@@H](O)[C@@H]3O)[C@@H]2O)[C@H](O)[C@@H](O)[C@H]1O` (stereo partly drawn) [Cpd. ID 30, D-Gal-(β1-3)-D-Gal-(β1-2)-D-Glu], the Peak areas runs as follows: (Comp. Ex. 1 sample, 0 h) 2.6; under setting [1], 0.0; under setting [2], 1.3; under setting [3], 0.3; under setting [4], 0.0; under setting [5], 0.5. In addition, the Peak areas runs as follows: under setting [6], 0.0; under setting [7], 0.0; under setting [8], 0.6; under setting [9], 0.0; (Example 2 sample, 0 h) 12.6; (Example 2 sample, 6 h, Donor A) 0.0. This molecule also came in with a Peak areas (Example 2 sample, 6 h, Donor B) of 1.8; a Peak areas (Example 2 sample, 6 h, Donor C) of 0.9; a Peak areas under setting [10] of 0.0; a Peak areas under setting [11] of 0.5; a Peak areas under setting [12] of 0.0; a Peak areas under setting [13] of 0.1. In addition, the Peak areas under setting [14] is listed as 0.0 and the Peak areas under setting [15] worked out at 0.2.

Turning to `OC[C@H]1O[C@@H](O[C@H]2[C@@H](O)[C@@H](CO)O[C@@H](O[C@H]3[C@@H](O)[C@@H](CO)O[C@@H](O[C@H]4[C@H](O)[C@@H](O)C(O)O[C@@H]4CO)[C@@H]3O)[C@@H]2O)[C@H](O)[C@@H](O)[C@H]1O` (stereo partly drawn) [Cpd. ID 31, D-Gal-(β1-3)-D-Gal-(β1-3)-D-Gal-(β1-4)-D-Glu], the Peak areas worked out at 0.8 (Comp. Ex. 1 sample, 0 h); 0.0 under setting [1]; 0.5 under setting [2]; 0.3 under setting [3]; 0.5 under setting [4]; 0.5 under setting [5]. The Peak areas is, setting by setting: under setting [6], 0.0; under setting [7], 0.0; under setting [8], 0.4; under setting [9], 0.0; (Example 2 sample, 6 h, Donor A) 0.0; (Example 2 sample, 6 h, Donor B) 2.0. Besides, the Peak areas came to 0.3 (Example 2 sample, 6 h, Donor C); 0.2 under setting [10]; 0.3 under setting [11]; 0.0 under setting [12]; 0.0 under setting [13]; 0.0 under setting [14]. Under setting [15], this molecule displayed a Peak areas of 0.0.

`O=C[C@H](O)[C@@H](O)[C@@H](O)[C@H](O)CO` [Galactose]: the Peak areas reads like this: (Comp. Ex. 1 sample, 0 h) 0.5; under setting [1], 2.4; under setting [2], 45.1; under setting [3], 0.7; under setting [4], 0.0; under setting [5], 0.1. In addition, the Peak areas by setting is: under setting [6], 0.0; under setting [7], 0.0; under setting [8], 0.0; under setting [9], 0.0; (Example 2 sample, 0 h) 1.3; (Example 2 sample, 6 h, Donor A) 2.1. The Peak areas came out at 47.3 (Example 2 sample, 6 h, Donor B); 0.8 (Example 2 sample, 6 h, Donor C); 0.0 under setting [10]; 0.1 under setting [11]; 0.0 under setting [12]; 0.0 under setting [13]. Moreover, the Peak areas stood at 0.0 under setting [14] and 0.0 under setting [15].

On to `O=C[C@H](O)[C@@H](O)[C@H](O)[C@H](O)CO` [Glucose], for which the Peak areas (Comp. Ex. 1 sample, 0 h) came out at 19.5; the Peak areas under setting [1] stood at 2.9; the Peak areas under setting [2] came to 34.1; the Peak areas under setting [3] was 0.2; the Peak areas under setting [4] was found to be 0.0; the Peak areas under setting [5] turned out to be 0.1. Also, the Peak areas was 0.0 under setting [6]; 0.0 under setting [7]; 0.0 under setting [8]; 0.0 under setting [9]; 17.5 (Example 2 sample, 0 h); 2.6 (Example 2 sample, 6 h, Donor A). This molecule also registered a Peak areas (Example 2 sample, 6 h, Donor B) of 26.9; a Peak areas (Example 2 sample, 6 h, Donor C) of 0.3; a Peak areas under setting [10] of 0.0; a Peak areas under setting [11] of 0.0; a Peak areas under setting [12] of 0.0; a Peak areas under setting [13] of 0.0. The Peak areas reads like this: under setting [14], 0.0; under setting [15], 0.0.

As to `OC[C@H]1O[C@@H](O[C@H]2[C@H](O)[C@@H](O)C(O)O[C@@H]2CO)[C@H](O)[C@@H](O)[C@H]1O` (some centres unmarked) [Lactose], the Peak areas (Comp. Ex. 1 sample, 0 h) is given as 48.4; the Peak areas under setting [1] is given as 0.7; the Peak areas under setting [2] turned out to be 1.9; the Peak areas under setting [3] was found to be 0.4; the Peak areas under setting [4] turned out to be 0.4; the Peak areas under setting [5] amounted to 0.5. Moreover, the Peak areas reads like this: under setting [6], 0.4; under setting [7], 0.3; under setting [8], 0.5; under setting [9], 0.3; (Example 2 sample, 0 h) 30.9; (Example 2 sample, 6 h, Donor A) 0.3. Further, the Peak areas (Example 2 sample, 6 h, Donor B) is reported as 5.3; the Peak areas (Example 2 sample, 6 h, Donor C) amounted to 0.6; the Peak areas under setting [10] was 0.3; the Peak areas under setting [11] came to 0.4; the Peak areas under setting [12] is recorded as 0.4; the Peak areas under setting [13] is 0.3. The Peak areas under setting [14] was determined as 0.5 and the Peak areas under setting [15] worked out at 0.3.
